Measurements from the supplement of paper PMC10307832.

Tests used:
Experiment in all cases: relative viability (nuclei count vs DMSO), 5 days (fraction); higher = more cells survive
NCI-H520 = system: NCI-H520
Method in brief: (§1)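 Lung cancer cell lines, seeded in 1536-well plates, were treated the following day by pin tool with a single drug or with five library-drug doses (not always all listed) in √10 steps on top of a fixed anchor-drug dose. Cells were fixed and nuclei stained in one step after 5 days, and nuclei were counted. Relative viability is the nuclei count for treated wells divided by that for vehicle wells, reported as medians of duplicate plates.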

PC-14 = system: PC-14
Method in brief: as §1

NCI-H2347 = system: NCI-H2347
Method in brief: as §1

LXF-289 = system: LXF-289
Method in brief: as §1

NCI-H1915 = system: NCI-H1915
Method in brief: as §1

NCI-H322M = system: NCI-H322M
Method in brief: as §1

NCI-H1755 = system: NCI-H1755
Method in brief: as §1

NCI-H3122 = system: NCI-H3122
Method in brief: as §1

NCI-H727 = system: NCI-H727
Method in brief: as §1

NCI-H1651 = system: NCI-H1651
Method in brief: as §1

NCI-H460 = system: NCI-H460
Method in brief: as §1

NCI-H1792 = system: NCI-H1792
Method in brief: as §1

NCI-H441 = system: NCI-H441
Method in brief: as §1

NCI-H1355 = system: NCI-H1355
Method in brief: as §1

SK-MES-1 = system: SK-MES-1
Method in brief: as §1

RERF-LC-KJ = system: RERF-LC-KJ
Method in brief: as §1

NCI-H596 = system: NCI-H596
Method in brief: as §1

In the case of `COc1cc2nccc(Oc3ccc(NC(=O)Nc4cc(C)on4)c(Cl)c3)c2cc1OC` [Tivozanib] + CC1(C)CCC(c2ccc(Cl)cc2)=C(CN2CCN(c3ccc(C(=O)NS(=O)(=O)c4ccc(N[C@H](CCN5CCOCC5)CSc5ccccc5)c(S(=O)(=O)C(F)(F)F)c4)cc3)CC2)C1 [Navitoclax] (partner 0.5 µM), the relative viability (NCI-H520; first compound 0.005 µM) is reported as 1.09, the relative viability (NCI-H520; first compound 0.01581 µM) is reported as 0.962 and the relative viability (NCI-H520; first compound 0.05 µM) is reported as 0.969. For the same compound, the relative viability (NCI-H520; first compound 0.1581 µM) was 0.782, the relative viability (NCI-H520; first compound 0.5 µM) was 0.887 and the relative viability (PC-14; first compound 0.005 µM) was 0.98. For the same compound, the relative viability (PC-14; first compound 0.01581 µM) was 1.04, the relative viability (PC-14; first compound 0.05 µM) was 1.11 and the relative viability (PC-14; first compound 0.1581 µM) was 1.07. For the same compound, the relative viability (PC-14; first compound 0.5 µM) was 1, the relative viability (NCI-H2347; first compound 0.005 µM) was 0.735 and the relative viability (NCI-H2347; first compound 0.01581 µM) was 0.765. The relative viability (NCI-H2347; first compound 0.05 µM) was 0.847, the relative viability (NCI-H2347; first compound 0.1581 µM) was 0.735 and the relative viability (NCI-H2347; first compound 0.5 µM) was 0.804. It also gave a relative viability (LXF-289; first compound 0.005 µM) of 0.916, a relative viability (LXF-289; first compound 0.01581 µM) of 0.942 and a relative viability (LXF-289; first compound 0.05 µM) of 0.915. It also gave a relative viability (LXF-289; first compound 0.1581 µM) of 1.01, a relative viability (LXF-289; first compound 0.5 µM) of 0.926 and a relative viability (NCI-H1915; first compound 0.005 µM) of 0.756. The relative viability (NCI-H1915; first compound 0.01581 µM) was 0.765, the relative viability (NCI-H1915; first compound 0.05 µM) was 0.806 and the relative viability (NCI-H1915; first compound 0.1581 µM) was 0.838. For the same compound, the relative viability (NCI-H1915; first compound 0.5 µM) was 0.771, the relative viability (NCI-H322M; first compound 0.005 µM) was 1.23 and the relative viability (NCI-H322M; first compound 0.01581 µM) was 1.09. The relative viability (NCI-H322M; first compound 0.05 µM) was 1.28, the relative viability (NCI-H322M; first compound 0.1581 µM) was 1.22 and the relative viability (NCI-H322M; first compound 0.5 µM) was 1.14. It also gave a relative viability (NCI-H1755; first compound 0.005 µM) of 0.953, a relative viability (NCI-H1755; first compound 0.01581 µM) of 0.949 and a relative viability (NCI-H1755; first compound 0.05 µM) of 1.01. For the same compound, the relative viability (NCI-H1755; first compound 0.1581 µM) was 0.932, the relative viability (NCI-H1755; first compound 0.5 µM) was 0.916 and the relative viability (NCI-H3122; first compound 0.005 µM) was 1.03. It also gave a relative viability (NCI-H3122; first compound 0.01581 µM) of 1, a relative viability (NCI-H3122; first compound 0.05 µM) of 1.07 and a relative viability (NCI-H3122; first compound 0.1581 µM) of 1.03. It also gave a relative viability (NCI-H3122; first compound 0.5 µM) of 1.03, a relative viability (NCI-H727; first compound 0.005 µM) of 0.343 and a relative viability (NCI-H727; first compound 0.01581 µM) of 0.49. The relative viability (NCI-H727; first compound 0.05 µM) was 0.412, the relative viability (NCI-H727; first compound 0.5 µM) was 0.551 and the relative viability (NCI-H1651; first compound 0.005 µM) was 0.979. It also gave a relative viability (NCI-H1651; first compound 0.01581 µM) of 0.934, a relative viability (NCI-H1651; first compound 0.05 µM) of 1.09 and a relative viability (NCI-H1651; first compound 0.1581 µM) of 0.983. It also gave a relative viability (NCI-H1651; first compound 0.5 µM) of 1.15, a relative viability (NCI-H460; first compound 0.005 µM) of 1.09 and a relative viability (NCI-H460; first compound 0.01581 µM) of 1.24. It also gave a relative viability (NCI-H460; first compound 0.05 µM) of 1.13, a relative viability (NCI-H460; first compound 0.1581 µM) of 1.17 and a relative viability (NCI-H460; first compound 0.5 µM) of 1.1. For the same compound, the relative viability (NCI-H1792; first compound 0.005 µM) was 0.657, the relative viability (NCI-H1792; first compound 0.01581 µM) was 0.638 and the relative viability (NCI-H1792; first compound 0.05 µM) was 0.657. It also gave a relative viability (NCI-H1792; first compound 0.1581 µM) of 0.505, a relative viability (NCI-H1792; first compound 0.5 µM) of 0.849 and a relative viability (NCI-H441; first compound 0.005 µM) of 0.473. It also gave a relative viability (NCI-H441; first compound 0.01581 µM) of 0.424, a relative viability (NCI-H441; first compound 0.05 µM) of 0.747 and a relative viability (NCI-H441; first compound 0.1581 µM) of 0.566. The relative viability (NCI-H441; first compound 0.5 µM) was 0.545, the relative viability (NCI-H1355; first compound 0.005 µM) was 0.844 and the relative viability (NCI-H1355; first compound 0.01581 µM) was 0.989. For the same compound, the relative viability (NCI-H1355; first compound 0.05 µM) was 0.996, the relative viability (NCI-H1355; first compound 0.5 µM) was 1 and the relative viability (SK-MES-1; first compound 0.005 µM) was 1.25. The relative viability (SK-MES-1; first compound 0.01581 µM) was 1.16, the relative viability (SK-MES-1; first compound 0.05 µM) was 1.4 and the relative viability (SK-MES-1; first compound 0.1581 µM) was 1.17. It also gave a relative viability (SK-MES-1; first compound 0.5 µM) of 1.18, a relative viability (RERF-LC-KJ; first compound 0.005 µM) of 0.872 and a relative viability (RERF-LC-KJ; first compound 0.01581 µM) of 0.828. The relative viability (RERF-LC-KJ; first compound 0.05 µM) was 1.13, the relative viability (RERF-LC-KJ; first compound 0.1581 µM) was 1.37 and the relative viability (RERF-LC-KJ; first compound 0.5 µM) was 1.07. For the same compound, the relative viability (NCI-H596; first compound 0.005 µM) was 0.94, the relative viability (NCI-H596; first compound 0.01581 µM) was 1.07 and the relative viability (NCI-H596; first compound 0.05 µM) was 0.936. For the same compound, the relative viability (NCI-H596; first compound 0.1581 µM) was 0.911 and the relative viability (NCI-H596; first compound 0.5 µM) was 0.922.
